Starred links: 1 amine or outer side, 2 acyl side, 3 side chain; linkers in the order of their positions; H or OH if unused. Positions of bridges follow the written chain, without caps; N, C: chain ends. Non-standard residues stand in square brackets, D forms with d. Residues, ends and D or L forms follow the SMILES beside them. ξ: configuration not given here. mXylylene = c1cc(C[*:1])cc(C[*:2])c1; ξhCys = NC(CCS)C(=O)O
Key:
[1] = Cytotoxicity against human TZM-bl cells assessed as reduction in viability after 2 days by XTT assay; format: cell-based
[2] = system: Human immunodeficiency virus 1; test: Antiviral activity against X4 tropic HIV-1 subtype-B 3B infected in human MT2 cells or CEMx174 5.25 M7 cells assessed as reduction in p24 Gag protein production measured at 4 days post-infection by ELISA; format: functional, cell-based, HIV-1 group M; conditions: Human immunodeficiency virus 1, 3B, 96 h
[3] = system: Human immunodeficiency virus 1; test: Antiviral activity against R5 tropic HIV-1 subtype-B Bal infected in human MT2 cells or CEMx174 5.25 M7 cells assessed as reduction in p24 Gag protein production measured at 4 days post-infection by ELISA; format: functional, cell-based, HIV-1 group M; conditions: Human immunodeficiency virus 1, Bal, 96 h
[4] = target: Envelope glycoprotein gp160 (Human immunodeficiency virus 1) (UniProt Q6QLK5); test: Ratio of EC50 for inhibition of HIV1 gp41-induced cell-cell fusion between viral envelope expressing human HL2/3 cells to CD4/CCR5 receptor expressing TZM-bl cells in absence of HP23 to EC50 for inhibition of HIV1 gp41-induced cell-cell fusion between viral envelope expressing human HL2/3 cells to CD4/CCR5 receptor expressing TZM-bl cells at 4:1 compound to HP23 ratio
[5] = system: Human immunodeficiency virus 1; test: Synergistic antiviral activity against X4 tropic HIV-1 subtype-B 3B infected in human MT2 cells or CEMx174 5.25 M7 cells assessed as reduction in p24 Gag protein production by measuring combination index at 24:1 compound to HP23 ratio measured at 4 days post-infection by ELISA; format: functional, HIV-1 group M
[6] = system: Human immunodeficiency virus 1; test: Antiviral activity against X4 tropic HIV-1 subtype-B 3B infected in human MT2 cells or CEMx174 5.25 M7 cells assessed as reduction in p24 Gag protein production at 12:1 compound to HP23 ratio measured at 4 days post-infection by ELISA; format: functional, cell-based, HIV-1 group M; conditions: Human immunodeficiency virus 1, 3B, 96 h
[7] = system: Human immunodeficiency virus 1; test: Synergistic antiviral activity against HIV1 NL4-3 infected in human MT2 cells or CEMx174 5.25 M7 cells assessed as reduction in p24 Gag protein production by measuring combination index at 10:1 compound to HP23 ratio measured at 4 days post-infection by ELISA; format: functional
[8] = system: Human immunodeficiency virus 1; test: Antiviral activity against HIV1 NL4-3 infected in human MT2 cells or CEMx174 5.25 M7 cells assessed as reduction in p24 Gag protein production at 10:1 compound to HP23 ratio measured at 4 days post-infection by ELISA; format: functional, organism-based; conditions: Human immunodeficiency virus 1, NL4-3, 96 h
[9] = system: Human immunodeficiency virus 1; test: Antiviral activity against T20 resistant HIV1 NL4-3 harboring with V38E/N42T mutant infected in human MT2 cells or CEMx174 5.25 M7 cells assessed as reduction in p24 Gag protein production at 300:1 compound to HP23 ratio measured at 4 days post-infection by ELISA; format: functional, organism-based
[10] = system: Human immunodeficiency virus 1; test: Ratio of EC50 for antiviral activity against T2635 resistant HIV1 LAI harboring Q66R mutant infected in human MT2 cells or CEMx174 5.25 M7 cells in absence of HP23 to antiviral activity against T2635 resistant HIV1 LAI harboring Q66R mutant infected in human MT2 cells or CEMx174 5.25 M7 cells at 25:1 ratio of compound to HP23; format: functional, M:B_Lai
[11] = Metabolic stability in rat liver homogenates assessed as parent compound remaining at 3 to 100 uM after 2 hrs by RP-HPLC analysis; format: ADME, tissue-based; conditions: read-out: Stability
[12] = system: Human immunodeficiency virus 1; test: Antiviral activity against HIV1 NL4-3 infected in human MT2 cells or CEMx174 5.25 M7 cells assessed as reduction in p24 Gag protein production measured at 4 days post infection by ELISA; format: functional, organism-based; conditions: Human immunodeficiency virus 1, NL4-3, 96 h
[13] = system: Human immunodeficiency virus 1; test: Antiviral activity against T20 resistant HIV1 NL4-3 harboring with V38E/N42S mutant infected in human MT2 cells or CEMx174 5.25 M7 cells assessed as reduction in p24 Gag protein production measured at 4 days post-infection by ELISA; format: functional, organism-based
[14] = system: Human immunodeficiency virus 1; test: Antiviral activity against T20 resistant HIV1 NL4-3 harboring with V38E/N42T mutant infected in human MT2 cells or CEMx174 5.25 M7 cells assessed as reduction in p24 Gag protein production measured at 4 days post-infection by ELISA; format: functional, organism-based
[15] = system: Human immunodeficiency virus 1; test: Antiviral activity against T2635 resistant HIV1 LAI harboring Q66R mutant infected in human MT2 cells or CEMx174 5.25 M7 cells assessed as reduction in p24 Gag protein production measured at 4 days post-infection by ELISA; format: functional, organism-based, M:B_Lai
[16] = system: Human immunodeficiency virus 1; test: Antiviral activity against X4 tropic HIV-1 subtype-B 3B infected in human MT2 cells or CEMx174 5.25 M7 cells assessed as reduction in p24 Gag protein production at 12:1 ratio of hCS6ERE to compound measured at 4 days post-infection by ELISA; format: functional, cell-based, HIV-1 group M; conditions: Human immunodeficiency virus 1, 3B, 96 h
[17] = system: Human immunodeficiency virus 1; test: (§1) Ratio of EC50 for antiviral activity against X4 tropic HIV-1 subtype-B 3B infected in human MT2 cells or CEMx174 5.25 M7 cells in absence of hCS6ERE to EC50 for antiviral activity against X4 tropic HIV-1 subtype-B 3B infected in human MT2 cells or CEMx174 5.25 M7 cells at 6:1 ratio of hCS6ERE to compound; format: functional, HIV-1 group M
[18] = system: Human immunodeficiency virus 1; test: as §1, with “R5” for “X4”, “Bal” for “3B”; format: functional, HIV-1 group M
[19] = system: Human immunodeficiency virus 1; test: as §1, with “R5” for “X4”, “Bal” for “3B”, “24:1” for “6:1”; format: functional, HIV-1 group M
[20] = system: Human immunodeficiency virus 1; test: Ratio of EC50 for antiviral activity against HIV1 NL4-3 infected in human MT2 cells or CEMx174 5.25 M7 cells in absence of hCS6ERE to EC50 for antiviral activity against HIV1 NL4-3 infected in human MT2 cells or CEMx174 5.25 M7 cells at 5:1 hCS6ERE to compound ratio; format: functional
[21] = system: Human immunodeficiency virus 1; test: Ratio of EC50 for antiviral activity against HIV1 NL4-3 infected in human MT2 cells or CEMx174 5.25 M7 cells in absence of hCS6ERE to EC50 for antiviral activity against HIV1 NL4-3 infected in human MT2 cells or CEMx174 5.25 M7 cells at 10:1 hCS6ERE to compound ratio; format: functional
[22] = system: Human immunodeficiency virus 1; test: Antiviral activity against T20 resistant HIV1 NL4-3 harboring with V38E/N42S mutant infected in human MT2 cells or CEMx174 5.25 M7 cells assessed as reduction in p24 Gag protein production at 3500:1 hCS6ERE to compound ratio measured at 4 days post-infection by ELISA; format: functional, organism-based
[23] = system: Human immunodeficiency virus 1; test: Ratio of EC50 for antiviral activity against T2635 resistant HIV1 LAI harboring Q66R mutant infected in human MT2 cells or CEMx174 5.25 M7 cells in absence of hCS6ERE to antiviral activity against T2635 resistant HIV1 LAI harboring Q66R mutant infected in human MT2 cells or CEMx174 5.25 M7 cells at 12.5:1 ratio of hCS6ERE to compound; format: functional, M:B_Lai
[24] = system: Human immunodeficiency virus 1; test: Ratio of EC50 for antiviral activity against T2635 resistant HIV1 LAI harboring Q66R mutant infected in human MT2 cells or CEMx174 5.25 M7 cells in absence of hCS6ERE to antiviral activity against T2635 resistant HIV1 LAI harboring Q66R mutant infected in human MT2 cells or CEMx174 5.25 M7 cells at 25:1 ratio of hCS6ERE to compound; format: functional, M:B_Lai

Sequence of Envelope glycoprotein gp160 (Human immunodeficiency virus 1) (Q6QLK5 1-814): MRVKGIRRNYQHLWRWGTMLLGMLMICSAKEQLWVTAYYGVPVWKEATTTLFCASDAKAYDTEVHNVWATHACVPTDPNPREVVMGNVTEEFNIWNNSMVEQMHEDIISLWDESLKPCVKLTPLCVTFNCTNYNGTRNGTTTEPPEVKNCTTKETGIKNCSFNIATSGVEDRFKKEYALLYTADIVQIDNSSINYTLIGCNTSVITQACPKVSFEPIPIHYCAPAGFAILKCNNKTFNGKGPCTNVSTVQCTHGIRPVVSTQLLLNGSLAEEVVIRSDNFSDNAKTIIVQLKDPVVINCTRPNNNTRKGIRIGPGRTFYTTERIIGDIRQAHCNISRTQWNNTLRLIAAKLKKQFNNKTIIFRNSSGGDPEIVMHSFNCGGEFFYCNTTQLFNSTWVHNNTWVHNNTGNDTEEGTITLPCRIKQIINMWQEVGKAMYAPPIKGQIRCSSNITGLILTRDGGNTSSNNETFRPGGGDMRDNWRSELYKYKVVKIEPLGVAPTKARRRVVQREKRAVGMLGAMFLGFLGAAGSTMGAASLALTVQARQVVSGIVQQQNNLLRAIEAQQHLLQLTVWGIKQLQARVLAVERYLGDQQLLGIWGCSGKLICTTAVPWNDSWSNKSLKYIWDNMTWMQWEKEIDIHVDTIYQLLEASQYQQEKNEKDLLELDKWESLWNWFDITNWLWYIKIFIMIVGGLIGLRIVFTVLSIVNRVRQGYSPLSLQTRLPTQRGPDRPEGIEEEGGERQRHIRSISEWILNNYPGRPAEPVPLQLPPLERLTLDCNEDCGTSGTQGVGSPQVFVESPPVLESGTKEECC

For `CC[C@H](C)[C@H](NC(C)=O)C(=O)N[C@@H](CCC(=O)O)C(=O)N[C@@H](CCC(=O)O)C(=O)N[C@@H](CC(C)C)C(=O)N[C@H](C(=O)NC1CCSCc2cccc(c2)CSCCC(C(=O)N[C@@H](CCC(N)=O)C(=O)N[C@@H](CCC(N)=O)C(=O)N[C@@H](CCCNC(=N)N)C(=O)N[C@@H](CCCCN)C(=O)N[C@@H](CC(N)=O)C(=O)N[C@@H](CCC(=O)O)C(=O)N[C@@H](CCC(=O)O)C(=O)N[C@@H](C)C(=O)N[C@@H](CC(C)C)C(=O)N[C@@H](CCCNC(=N)N)C(=O)N[C@@H](CCC(=O)O)C(=O)N[C@@H](CC(C)C)C(N)=O)NC(=O)[C@H](CCC(N)=O)NC(=O)[C@H](C)NC(=O)[C@H](C)NC1=O)[C@@H](C)CC` (stereo not given in full) (Ac-IEELI[ξhCys]AAQ[ξhCys]QQRKNEEALREL-NH2; linker 6-10 via mXylylene), the CC50 at 48 h [1] was over 800000 nM, the EC50 [2] was 11 to 27.1 nM and the EC50 [3] was 15.2 to 15.4 nM. For the same compound, the Ratio EC50 [4] was 2.9, the CI [5] was 0.9 and the EC50 [6] was 11.1 nM. The CI [7] was 0.7, the EC50 [8] was 9 nM and the EC50 [9] was 433 nM. For the same compound, the “Ratio EC50” value [10] was 2.2, the remaining at 2 h, up to 100 µM [11] was 27.4% and the EC50 [12] was 22.1 nM. For the same compound, the EC50 [13] was 6900 nM, the EC50 [14] was 1010 nM and the EC50 [15] was 86.4 nM.

Compound H-EMTWEEWEKKIEEYTKKIEEILK-OH has an EC50 [2] of 2.5 nM, an EC50 [3] of 2.6 nM and an EC50 [16] of 0.9 nM. The “Ratio EC50” value [17] was 1.9, the “Ratio EC50” value [18] was 1.9 and the “Ratio EC50” value [19] was 5.2. For the same compound, the “Ratio EC50” value [20] was 3.8, the “Ratio EC50” value [21] was 3.8 and the EC50 [22] was 0.6 nM. The “Ratio EC50” value [23] was 2.7, the “Ratio EC50” value [24] was 3.2 and the EC50 [12] was 3.4 nM. The EC50 [13] was 1.4 nM, the EC50 [14] was 4.1 nM and the EC50 [15] was 4.8 nM.
